# Measured values published in PubChem BioAssay (NCI).
# Values joined by “and” are separate entries in the source; they are usually repeats but may differ in a detail not shown here. Equal values may be shown once.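 Cultured in 96-well plates, cells were exposed to test compound for 48 hours across five concentrations. GI50 marks 50% less growth. Definition used: TGI = concentration required for complete inhibition of growth.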
# Assays:
# Assay in all cases: growth of human tumour cells (NCI), 48 h
# HT29 colon = system: HT29 colon
# OVCAR-5 ovarian = system: OVCAR-5 ovarian
# SF-268 CNS = system: SF-268 CNS
# HCC-2998 colon = system: HCC-2998 colon
# ACHN renal = system: ACHN renal
# NCI-H522 lung = system: NCI-H522 lung
# HCT-15 colon = system: HCT-15 colon
# IGROV1 ovarian = system: IGROV1 ovarian
# SK-MEL-2 melanoma = system: SK-MEL-2 melanoma
# MALME-3M melanoma = system: MALME-3M melanoma
# MDA-MB-231 breast = system: MDA-MB-231 breast
# RPMI-8226 leukemia = system: RPMI-8226 leukemia
# LOX IMVI melanoma = system: LOX IMVI melanoma
SMILES,TGI (HT29 colon),TGI (OVCAR-5 ovarian),TGI (SF-268 CNS),TGI (HCC-2998 colon),TGI (ACHN renal),TGI (NCI-H522 lung),TGI (HCT-15 colon),TGI (IGROV1 ovarian),TGI (SK-MEL-2 melanoma),TGI (MALME-3M melanoma),TGI (MDA-MB-231 breast),TGI (RPMI-8226 leukemia),TGI (LOX IMVI melanoma),GI50 (SF-268 CNS),GI50 (HCC-2998 colon),GI50 (ACHN renal),GI50 (IGROV1 ovarian),GI50 (MDA-MB-231 breast)
CC(=O)N1N=C(c2ccc3ccccc3c2O)CC1C(=O)c1ccco1 (stereo not drawn),> 100 µM,> 100 µM,> 100 µM,55.5 µM,> 100 µM,76.6 µM,> 100 µM,> 100 µM,52.8 µM,> 100 µM,> 100 µM,85 µM,–,–,–,–,–,–
O=C1CCCCC(=O)OC2(CCCCC2=O)CC1 (stereo not drawn),> 100 µM,> 100 µM,> 100 µM,> 100 µM,> 100 µM,> 100 µM,> 100 µM,> 100 µM,> 100 µM,> 100 µM,> 100 µM,> 100 µM,–,–,–,–,–,–
CC1(CF)SCc2nc3ccccc3n21 (stereo not drawn),> 100 µM,> 100 µM,> 100 µM,> 100 µM,> 100 µM,> 100 µM,> 100 µM,> 100 µM,–,> 100 µM,> 100 µM,> 100 µM,> 100 µM,–,–,–,–,–
COc1cc(CNc2ccc(SC)cc2)cc(OC)c1OC,29.9 µM and 14.5 µM,> 92.1 µM and 87.3 µM,> 100 µM and 69.3 µM,> 60 µM and 26.6 µM,> 100 µM,29.3 µM and 11 µM,57.5 µM and 78.2 µM,> 82.1 µM and 71.6 µM,46 µM and > 50.6 µM,> 100 µM,> 100 µM,> 78.3 µM and 66.2 µM,> 59.7 µM and 45.9 µM,19.9 µM and 7.47 µM,11 µM and 4.92 µM,22.8 µM and 11 µM,17.2 µM and 7.73 µM,15 µM and 6.23 µM
Cc1cc(C2(O)C=C(C(C)(C)C)C(=O)C(C(C)(C)C)=C2)c(C)cc1C1(O)C=C(C(C)(C)C)C(=O)C(C(C)(C)C)=C1,> 100 µM,> 100 µM,> 100 µM,–,> 100 µM,> 100 µM,> 100 µM,> 100 µM,> 100 µM,> 100 µM,> 100 µM,> 100 µM,> 100 µM,–,–,–,–,–
O=C(NCCCCCCNCc1cccc2ccccc12)Nc1cccc2ccccc12,> 100 µM,> 100 µM,> 100 µM,> 100 µM,> 100 µM,> 100 µM,> 100 µM,> 100 µM,> 100 µM,> 100 µM,> 100 µM,> 100 µM,> 100 µM,–,–,–,–,–
CN(C)Cc1cc(C(=O)/C=C/c2ccccc2Cl)cc(CN(C)C)c1O,9.94 µM,40.2 µM,61.3 µM,36.6 µM,16.3 µM,18 µM,36 µM,28 µM,–,23.5 µM,24.6 µM,56.5 µM,13.5 µM,–,–,–,–,–
OCC1OC(n2cnc3c(Cl)nc(Nc4ccccc4)nc32)CC1O (stereo not drawn),> 100 µM,> 100 µM,> 100 µM,44.7 µM,32.1 µM,10.6 µM,60.8 µM,66.8 µM,> 100 µM,37.8 µM,> 100 µM,> 100 µM,36.5 µM,–,–,–,–,–
COC(=O)[C@@H]1CCCN1CCN1CCC[C@H]1C(=O)OC,> 100 µM,> 100 µM,> 100 µM,–,> 100 µM,> 100 µM,> 100 µM,–,> 100 µM,> 100 µM,> 100 µM,> 100 µM,–,–,–,–,–,–
CC1=NN(c2ccc(S(=O)(=O)O)cc2)C2(C1)SCC(=O)N2c1nc2ccccc2s1 (stereo not drawn),> 100 µM,> 100 µM,> 100 µM,> 100 µM,> 100 µM,> 100 µM,> 100 µM,> 100 µM,> 100 µM,> 100 µM,> 100 µM,> 100 µM,> 100 µM,–,–,–,–,–
COc1ccc(/C=N/N=C(\N)NO)c(O)c1,> 10 µM,> 10 µM,> 10 µM,> 10 µM,> 10 µM,> 10 µM,> 10 µM,> 10 µM,> 10 µM,> 10 µM,> 10 µM,> 10 µM,> 10 µM,–,–,–,–,–
O=C1c2ccccc2-c2nc(-c3cccc([N+](=O)[O-])c3)nnc21,5.43 µM,50 µM,> 100 µM,–,16.7 µM,> 100 µM,59.9 µM,> 100 µM,49.2 µM,38.4 µM,> 100 µM,> 100 µM,–,–,–,–,–,–
O=C1NC(N/N=C/C(O)C(O)C(O)CO)=N/C1=C\c1ccco1 (stereo not drawn),> 100 µM,> 100 µM,> 100 µM,> 100 µM,> 100 µM,> 100 µM,> 100 µM,> 100 µM,–,> 100 µM,> 100 µM,> 100 µM,> 100 µM,–,–,–,–,–
